The conditions of the series: disulfide bond.

Like-named read-outs stand apart in the source and are kept apart here.

Take `CC(=O)N[C@H]1CSSC[C@@H](C(N)=O)NC(=O)[C@@H]2CCCN2C(=O)CNC1=O` [Ac-Cys-Gly-Pro-Cys-NH2]: under “from Ac-Cys-Gly-Pro-Cys-NH2, 14-membered ring, trans-[Pt(en)2Cl2]2+”, the ring closure, conversion stood at 100%.

In the case of `CSCC[C@H](NC(=O)[C@H](CC(C)C)NC(=O)[C@@H]1CCCN1C(=O)[C@H](Cc1ccc(O)cc1)NC(=O)[C@H](Cc1ccccc1)NC(=O)[C@@H]1CSSC[C@H](NC(=O)[C@@H]2CCCN2C(=O)[C@@H](N)CCCNC(=N)N)C(=O)N2CCC[C@H]2C(=O)N[C@@H](CCC(N)=O)C(=O)N1)C(N)=O` [H-Arg-Pro-Cys-Pro-Gln-Cys-Phe-Tyr-Pro-Leu-Met-NH2], the ring closure, conversion (from H-Arg-Pro-Cys-Pro-Gln-Cys-Phe-Tyr-Pro-Leu-Met-NH2, 14-membered ring) is 99%.

In the case of `CC(=O)N[C@@H](CCCCN)C(=O)N1CCC[C@H]1C(=O)N[C@H](C(=O)N[C@H]1CSSC[C@@H](C(=O)N[C@@H](CCCNC(=N)N)C(=O)N[C@@H](CCCCN)C(=O)N[C@H](C(N)=O)[C@@H](C)O)NC(=O)[C@H](Cc2ccccc2)NC(=O)[C@@H]2CCCN2C1=O)[C@@H](C)O` [Ac-Lys-Pro-Thr-Cys-Pro-Phe-Cys-Arg-Lys-Thr-NH2], the ring closure, conversion (from Ac-Lys-Pro-Thr-Cys-Pro-Phe-Cys-Arg-Lys-Thr-NH2, 14-membered ring, trans-[Pt(en)2Cl2]2+) came to 100%.

Molecule `NC(=O)CC[C@@H]1NC(=O)[C@H](Cc2ccccc2)NC(=O)[C@H](Cc2ccc(O)cc2)NC(=O)[C@@H](N)CSSC[C@@H](C(=O)O)NC(=O)[C@H](CC(N)=O)NC1=O` [pressinoic acid] had a ring closure, conversion (from H-Cys-Tyr-Phe-Gln-Asn-Cys-OH, 20-membered ring, trans-[Pt(en)2Cl2]2+) of 100%.

With “H-Cys-Phe-Gly-Ser-Arg-Ile-Asp-Arg-Ile-Gly-Ala-Gln-Ser-Gly-Met-Gly-Cys-Gly-Arg-Phe-OH”, for the setting “the molecule shown is the open-chain precursor, 53-membered ring, trans-[Pt(en)2Cl2]2+, phosphate buffer pH 6.0, 0.04 mM”, the ring closure, conversion was 100%.

For the molecule `CC[C@H](C)[C@H](NC(=O)[C@H](CC(=O)O)NC(=O)[C@@H](NC(C)=O)[C@@H](C)O)C(=O)N[C@H](C(=O)N[C@H]1CSSC[C@@H](C(=O)N[C@@H](Cc2c[nH]cn2)C(=O)N[C@@H](CCCCN)C(=O)N[C@@H](CC(C)C)C(=O)N[C@@H](Cc2c[nH]cn2)C(N)=O)NC(=O)[C@H](Cc2ccc(O)cc2)NC(=O)CNC1=O)[C@@H](C)O` [Ac-Thr-Asp-Ile-Thr-Cys-Gly-Tyr-Cys-His-Lys-Leu-His-NH2], under “from Ac-Thr-Asp-Ile-Thr-Cys-Gly-Tyr-Cys-His-Lys-Leu-His-NH2, 14-membered ring, trans-[Pt(en)2Cl2]2+”, the ring closure, conversion turned out to be 100%.

On to somatostatin, for which the ring closure, conversion (38-membered ring) came out at 99%.

In the case of `CC(=O)N1CCC[C@H]1C(=O)N[C@H](C(=O)N[C@H]1CSSC[C@@H](C(=O)N[C@@H](CCCNC(=N)N)C(=O)N[C@@H](CCCCN)C(N)=O)NC(=O)[C@H](Cc2ccccc2)NC(=O)[C@@H]2CCCN2C1=O)[C@@H](C)O` [Ac-Pro-Thr-Cys-Pro-Phe-Cys-Arg-Lys-NH2], the ring closure, conversion (from Ac-Pro-Thr-Cys-Pro-Phe-Cys-Arg-Lys-NH2, 14-membered ring, trans-[Pt(en)2Cl2]2+) came out at 100%.

For the setting “from H-Cys-Tyr-Phe-Gln-Asn-Cys-Pro-Arg-Gly-NH2, 20-membered ring, trans-[Pt(en)2Cl2]2+”, `N=C(N)NCCC[C@H](NC(=O)[C@@H]1CCCN1C(=O)[C@@H]1CSSC[C@H](N)C(=O)N[C@@H](Cc2ccc(O)cc2)C(=O)N[C@@H](Cc2ccccc2)C(=O)N[C@@H](CCC(N)=O)C(=O)N[C@@H](CC(N)=O)C(=O)N1)C(=O)NCC(N)=O` [arginine-vasopressin] returned a ring closure, conversion of 100%.

In the case of `COc1ccc(C[C@@H]2NC(=O)CC(C)(C)SSC[C@@H](C(=O)N3CCC[C@H]3C(=O)N[C@@H](CCCNC(=N)N)C(=O)NCC(N)=O)NC(=O)[C@H](CC(N)=O)NC(=O)[C@H](CCC(N)=O)NC(=O)[C@H](Cc3ccccc3)NC2=O)cc1`, the ring closure, conversion (from HSC(Me)2CH2CO-Tyr(Me)-Phe-Gln-Asn-Cys-Pro-Arg-Gly-NH2, 20-membered ring, trans-[Pt(en)2Cl2]2+) was 97%.

Take `CC(=O)N[C@H]1CSSC[C@@H](C(N)=O)NC(=O)[C@H](Cc2ccccc2)NC(=O)[C@@H]2CCCN2C1=O` [Ac-Cys-Pro-Phe-Cys-NH2]: the ring closure, conversion (from Ac-Cys-Pro-Phe-Cys-NH2, 14-membered ring, trans-[Pt(en)2Cl2]2+) is 97%.

For the molecule `CC(=O)N[C@H]1CSSC[C@@H](C(N)=O)NC(=O)[C@H](C)NC(=O)[C@H](C)NC(=O)[C@H](Cc2ccccc2)NC(=O)[C@@H]2CCCN2C1=O` [Ac-Cys-Pro-Phe-Ala-Ala-Cys-NH2], the ring closure, conversion (from Ac-Cys-Pro-Phe-Ala-Ala-Cys-NH2, 20-membered ring, trans-[Pt(en)2Cl2]2+) worked out at 100%.

On to `CC[C@H](C)[C@@H]1NC(=O)[C@H](Cc2ccc(O)cc2)NC(=O)[C@@H](N)CSSC[C@@H](C(=O)N2CCC[C@H]2C(=O)N[C@@H](CC(C)C)C(=O)NCC(N)=O)NC(=O)[C@H](CC(N)=O)NC(=O)[C@H](CCC(N)=O)NC1=O` [oxytocin], for which, under “from H-Cys-Tyr-Ile-Gln-Asn-Cys-Pro-Leu-Gly-NH2, 20-membered ring, trans-[Pt(en)2Cl2]2+”, the ring closure, conversion amounted to 98%.

`CC(=O)N[C@H](C(=O)N[C@H]1CSSC[C@@H](C(=O)N[C@@H](CCCNC(=N)N)C(N)=O)NC(=O)[C@H](Cc2ccccc2)NC(=O)[C@@H]2CCCN2C1=O)[C@@H](C)O` [Ac-Thr-Cys-Pro-Phe-Cys-Arg-NH2]: the ring closure, conversion (from Ac-Thr-Cys-Pro-Phe-Cys-Arg-NH2, 14-membered ring, trans-[Pt(en)2Cl2]2+) worked out at 100%.

Source of the values: patent US6686443.
